Source: US20140243396A1, “METHOD OF TREATING MUCOEPIDERMOID CARCINOMA” (DANA-FARBER CANCER INSTITUTE, INC., priority 2011, published 2014)

Tests used:
H3118 cells = experiment: cAMP measurement, enzyme immunoassay; type: cell-based; conditions: compared to DMSO control
Description: (§1) FIG. 5 illustrates inhibition of PDE4B increased cellular cAMP levels and inhibited PI3-kinase signaling. […] Columns: mean, bars: SD (n=3). B. Knock-down of PDE4B increased MEC cell cAMP level. n=3. **p<0.01, compared to control cells. Columns: mean, bars: SD (n=3). C. […] The same blot was stripped and probed with AKT or β-actin antibody. Image was cropped and auto-leveled by Photoshop. A representative of three independent experiments.
(§2) Cells were trypsinized and washed once with 1×PBS after treatment. The cell pellet was re-suspended in 100 μl of 0.1M HCL. cAMP amount was measure by Direct Cyclic AMP Enzyme Immunoassay Kit (#900-066, Assay Designs, Inc., Ann Arbor, Mich.) according to the manufacturer's protocol. The acetylated version of the kit was used.

HSY cells = experiment: cAMP measurement, enzyme immunoassay; type: cell-based; conditions: inhibitors
Description: as §1, §2

[1] = a few small 2003 studies; cited from earlier work
[2] = in vivo; cited from earlier work

| SMILES | increase of cAMP levels (H3118 cells) | effect on cAMP levels (in words) (HSY cells) | effective in treating renal colic [1] | adverse effects frequency [2] |
| --- | --- | --- | --- | --- |
| C=C[C@@]1(C)CC(=O)[C@]2(O)[C@@]3(C)[C@@H](O)CCC(C)(C)[C@@H]3[C@H](O)[C@H](OC(C)=O)[C@@]2(C)O1 [forskolin] | 4 fold | no effect |  |  |
| CCOc1ccc(/C=C2\NCCc3cc(OCC)c(OCC)cc32)cc1OCC [Drotaverine] |  |  | ~80% | 0.9% |
